{
  "source": "patent US10758534B2",
  "about": "(Vertex Pharmaceuticals Incorporated, priority 2014, dated 2020)",
  "data": [
    {"target": "T1, F508del (Homo sapiens, UniProt P13569, DEL508-508)", "T1 construct": "expressed in transfected cells", "T1 sequence (P13569 with tags, fused parts or gaps DEL508-508)": "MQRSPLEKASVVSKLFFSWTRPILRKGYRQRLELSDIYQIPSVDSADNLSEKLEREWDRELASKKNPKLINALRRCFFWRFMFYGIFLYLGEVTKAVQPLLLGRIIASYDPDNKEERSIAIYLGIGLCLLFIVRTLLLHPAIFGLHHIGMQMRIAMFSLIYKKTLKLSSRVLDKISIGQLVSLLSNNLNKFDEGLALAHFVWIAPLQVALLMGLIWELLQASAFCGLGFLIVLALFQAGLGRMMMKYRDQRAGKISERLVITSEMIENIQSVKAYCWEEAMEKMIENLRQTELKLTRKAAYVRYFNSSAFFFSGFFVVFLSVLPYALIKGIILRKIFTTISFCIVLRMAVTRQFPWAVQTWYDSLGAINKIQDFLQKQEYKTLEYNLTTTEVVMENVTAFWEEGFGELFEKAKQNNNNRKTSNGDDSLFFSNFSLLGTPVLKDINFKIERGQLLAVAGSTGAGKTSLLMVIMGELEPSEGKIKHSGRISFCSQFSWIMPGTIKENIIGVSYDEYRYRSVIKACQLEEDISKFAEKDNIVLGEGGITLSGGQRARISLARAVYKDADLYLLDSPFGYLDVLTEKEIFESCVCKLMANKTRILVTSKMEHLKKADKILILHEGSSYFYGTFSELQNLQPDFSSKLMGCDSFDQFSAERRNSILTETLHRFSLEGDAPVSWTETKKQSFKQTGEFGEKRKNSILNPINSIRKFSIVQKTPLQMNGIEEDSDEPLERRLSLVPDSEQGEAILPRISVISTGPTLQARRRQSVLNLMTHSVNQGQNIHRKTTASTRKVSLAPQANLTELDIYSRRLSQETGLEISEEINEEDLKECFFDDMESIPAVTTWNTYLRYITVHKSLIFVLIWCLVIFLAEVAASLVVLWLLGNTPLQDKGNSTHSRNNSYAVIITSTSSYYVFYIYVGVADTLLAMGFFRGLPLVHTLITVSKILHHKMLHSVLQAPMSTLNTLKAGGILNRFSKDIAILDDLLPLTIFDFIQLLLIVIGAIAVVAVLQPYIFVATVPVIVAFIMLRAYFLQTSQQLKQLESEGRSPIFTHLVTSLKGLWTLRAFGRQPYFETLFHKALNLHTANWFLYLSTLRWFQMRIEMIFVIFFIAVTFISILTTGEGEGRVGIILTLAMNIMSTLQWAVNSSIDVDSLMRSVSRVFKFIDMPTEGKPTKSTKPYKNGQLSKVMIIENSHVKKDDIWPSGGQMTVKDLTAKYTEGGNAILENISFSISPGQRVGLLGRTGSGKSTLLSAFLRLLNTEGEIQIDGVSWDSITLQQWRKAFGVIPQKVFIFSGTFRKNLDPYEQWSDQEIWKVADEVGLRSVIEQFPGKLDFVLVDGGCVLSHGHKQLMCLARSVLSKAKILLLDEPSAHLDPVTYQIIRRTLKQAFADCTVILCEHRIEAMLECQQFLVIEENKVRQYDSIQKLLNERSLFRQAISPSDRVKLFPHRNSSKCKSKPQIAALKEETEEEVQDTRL", "experiment": "Protocol 2: FRET membrane potential optical assay (VIPR), identification of correction compounds", "assay_type": "cell-based", "conditions": "Table 3; compounds of Table 1 as modulators of CFTR activity; protocol not stated", "summary_of_the_method": "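Correction of the F508del trafficking defect is scored as forskolin (10 μM)/genistein (20 μM)-stimulated Cl^− efflux in NIH3T3 mouse fibroblasts after a 16 hr, 37° C. compound exposure. Depolarization was followed optically using voltage-sensing FRET dyes.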", "values": [
      {"smiles": "CC(C)COc1cc(F)cc(-c2ccc(C(=O)NS(=O)(=O)c3ccn[nH]3)c(N3[C@H](C)CC[C@@H]3C)n2)c1", "note": "[Compound 415, 2-[(2S,5R)-2,5-dimethylpyrrolidin-1-yl]-6-(3-fluoro-5-isobutoxy-phenyl)-N-(1H-pyrazol-5-ylsulfonyl)pyridine-3-carboxamide]", "EC30": "+++ (“+++” means <3 uM)"},
      {"smiles": "CC(C)COc1cc(F)cc(-c2ccc(C(=O)NS(=O)(=O)c3cccc(N)n3)c(OC3C(C)CCC3C)n2)c1", "note": "(centres unmarked) [Compound 416, N-[(6-amino-2-pyridyl)sulfonyl]-2-(2,5-dimethylcyclopentoxy)-6-(3-fluoro-5-isobutoxy-phenyl)pyridine-3-carboxamide]", "EC30": "+++ (“+++” means <3 uM)"},
      {"smiles": "CC(C)(C)c1ccc(C(=O)NS(=O)(=O)c2cccc(N)n2)c(-c2ccc(F)cc2)n1", "note": "[Compound 417, N-[(6-amino-2-pyridyl)sulfonyl]-6-tert-butyl-2-(4-fluorophenyl)pyridine-3-carboxamide]", "EC30": "++ (“++” means between 3 uM and 10 uM)"},
      {"smiles": "CC(C)COc1cc(F)cc(-c2ccc(C(=O)NS(=O)(=O)c3cccc(N)n3)c(N3CCCCCC3)n2)c1", "note": "[Compound 418, N-[(6-amino-2-pyridyl)sulfonyl]-2-(azepan-1-yl)-6-(3-fluoro-5-isobutoxy-phenyl)pyridine-3-carboxamide]", "EC30": "+++ (“+++” means <3 uM)"},
      {"smiles": "COCC1CCCN(c2nc(-c3cc(F)cc(OCC(C)C)c3)ccc2C(=O)NS(=O)(=O)c2cccc(N)n2)C1", "note": "(centres unmarked) [Compound 419, N-[(6-amino-2-pyridyl)sulfonyl]-6-(3-fluoro-5-isobutoxy-phenyl)-2-[3-(methoxymethyl)-1-piperidyl]pyridine-3-carboxamide]", "EC30": "+++ (“+++” means <3 uM)"},
      {"smiles": "CC(C)COc1cc(F)cc(-c2ccc(C(=O)NS(=O)(=O)c3cccc(N)n3)c(N3C4CCC3CC4)n2)c1", "note": "[Compound 420, N-[(6-amino-2-pyridyl)sulfonyl]-2-(7-azabicyclo[2.2.1]heptan-7-yl)-6-(3-fluoro-5-isobutoxy-phenyl)pyridine-3-carboxamide]", "EC30": "+++ (“+++” means <3 uM)"},
      {"smiles": "CC(C)COc1cc(F)cc(-c2ccc(C(=O)NS(=O)(=O)c3cccc(N)n3)c(N3CCC[C@@H]3C)n2)c1", "note": "[Compound 421, N-[(6-amino-2-pyridyl)sulfonyl]-6-(3-fluoro-5-isobutoxy-phenyl)-2-[(2S)-2-methylpyrrolidin-1-yl]pyridine-3-carboxamide]", "EC30": "+++ (“+++” means <3 uM)"},
      {"smiles": "CC(C)COc1cc(F)cc(-c2ccc(C(=O)NS(=O)(=O)c3ccc[nH]c3=O)c(N3CCC(C)CC3)n2)c1", "note": "[Compound 422, 6-(3-fluoro-5-isobutoxy-phenyl)-2-(4-methyl-1-piperidyl)-N-[(2-oxo-1H-pyridin-3-yl)sulfonyl]pyridine-3-carboxamide]", "EC30": "+++ (“+++” means <3 uM)"},
      {"smiles": "COc1ncccc1S(=O)(=O)NC(=O)c1cc2c(nc1Oc1c(C)cc(C)cc1C)C(C)(C)CCC2", "note": "[Compound 423, N-[(2-methoxy-3-pyridyl)sulfonyl]-8,8-dimethyl-2-(2,4,6-trimethylphenoxy)-6,7-dihydro-5H-quinoline-3-carboxamide]", "EC30": "+++ (“+++” means <3 uM)"},
      {"smiles": "CC(C)COc1cc(F)cc(-c2ccc(C(=O)NS(=O)(=O)c3cccc(N)n3)c(N3CCCC34CCOC4)n2)c1", "note": "(centres unmarked) [Compound 424, N-[(6-amino-2-pyridyl)sulfonyl]-6-(3-fluoro-5-isobutoxy-phenyl)-2-(8-oxa-4-azaspiro[4.4]nonan-4-yl)pyridine-3-carboxamide]", "EC30": "+++ (“+++” means <3 uM)"},
      {"smiles": "CC(C)COc1cc(F)cc(-c2ccc(C(=O)NS(=O)(=O)c3cccc(N)n3)c(N3CCCCC3C)n2)c1", "note": "(centres unmarked) [Compound 425, N-[(6-amino-2-pyridyl)sulfonyl]-6-(3-fluoro-5-isobutoxy-phenyl)-2-(2-methyl-1-piperidyl)pyridine-3-carboxamide]", "EC30": "+++ (“+++” means <3 uM)"}
    ]}
  ]
}
